Assay results published in patent EP0472573B1, “HERBICIDE RESISTANT MAIZE” (ZENECA LIMITED, priority 1989, dated 1990).
Where two headings read alike, the source gives them in different places.

Key:
Type in all cases: biochemical, Zea mays
[1] = biological target: ALS enzyme extracted from Mutant 2 (heterozygous); assay: ALS enzyme assay, heterozygous Mutant 2; settings: for IC50: ALS of heterozygous Mutant 2, read-out: ID50% (the source's name); for resistance group, Enzyme Assay: Mutant 2, groups Strong, Intermediate, Weak, Zero; for Fold Increase: fold increase in resistance vs wild type, heterozygous Mutant 2, 30 min
Protocol: (§1) Seeds of generation M₁BC₁ M₁BC₂ of the nine mutants were sprayed pre-emergence with the herbicide imazethapyr (PURSUIT) (Trade Mark) at a rate of 250 g/ha and grown in a growth chamber (16 hour day, 27°C; 8 hour night, 17°C). Plants were harvested after 11 days.
(§2) Four grams of leaf material were harvested from just above the first leaf axis and ground in a mortar and pestle in 20ml of a solution containing 40mM Tricine (Trade Mark), 10mM EDTA, 5mM pyruvate, 80 »M flavin adenine dinucleotide (FAD), 1mM dithiothreitol (DTT), pH 8, plus 0.8g Polyclar AT. The homogenate was pressed through four layers of muslin and centrifuged at 30,000g for 20 minutes.
(§3) The supernatant was brought to 65% saturation with ammonium sulphate, left to precipitate for 30 minutes and then centrifuged at 30.000g for 20 minutes. The pellet was resuspended in 2.5ml of 40mM Tricine, 10mM EDTA, 5mM pyruvate, 80»M FAD, 25% (v/v) glycerol, 1mM DTT, pH 8, and desalted into 3.5ml of 40mM Tricine, 10mM EDTA, 25% (v/v) glycerol, 1mM DTT, pH 8.
(§4) One hundred microlitres of the enzyme extract was used for each assay. Final reagent concentrations were: 120mM Tricine, 50mM pyruvate, 10mM MgCl₂, […], 93»M thiamine pyrophosphate (TPP), pH 8, in the presence or absence of a herbicide of interest, in a volume of 750 »l. Incubations were carried out at 37°C for 30 minutes. Reactions were stopped with 250»l of 1.84M sulphuric acid, and decarboxylation of the acetolactate carried out at 37°C for 75 minutes, or at 60°C for 30 minutes. Assay blanks had sulphuric acid added prior to the enzyme extract. To the samples and blanks 650»l of α-naphthol in 2.73M NaOH/0.16%(w/v) creatine were added followed by incubation at 37°C for 30 minutes. After centrifugation at 30,000g the optical density of the supernatant was read at 540nm.
(§5) The assay procedure described was carried out on ALS enzyme extracted from each of the nine mutants for the following herbicides: imazethapyr (PURSUIT) imazapyr (ARSENAL) imazaquin (SCEPTER) chlorsulfuron (GLEAN) chlorimuron (CLASSIC) […] (HARMONY) The enzyme activity graphs are given as Figures 3 to 8. In addition, homozygous lines of mutants 1 and 2 which were selected from generation M₁BC₁S₂, were also tested against the same group of herbicides and against representatives of the triazolopyrimidines and phenoxypyrimidines. The chemical structures of these herbicides are shown in Figure 2 of the accompanying drawings.
(§6) From the enzyme assay data it is possible to derive, as a measure of the degree of inhibition the factor ID50% for each mutant and for each herbicide. This factor is indicative of the herbicide concentration which gives 50% inhibition of the ALS activity in comparison with the wild-type control. It is also possible to derive the fold increase in resistance.

[2] = biological target: ALS enzyme extracted from Mutant 1 (heterozygous); assay: ALS enzyme assay, heterozygous Mutant 1; settings: for IC50: ALS of heterozygous Mutant 1, read-out: ID50% (the source's name); for resistance group, Enzyme Assay: Mutant 1, groups Strong, Intermediate, Weak, Zero; for Fold Increase: fold increase in resistance vs wild type, heterozygous Mutant 1, 30 min
Protocol: as §1, §2, §3, §4, §5, §6

[3] = biological target: ALS (acetolactate synthase), Wild type; assay: ALS enzyme assay, wild-type control; settings: read-out: ID50% (the source's name)
Protocol: as §1, §2, §3, §4, §5, §6

[4] = biological target: ALS enzyme extracted from Mutant 9 (heterozygous); assay: ALS enzyme assay, heterozygous Mutant 9; settings: for IC50: ALS of heterozygous Mutant 9, read-out: ID50% (the source's name); for resistance group, Enzyme Assay: Mutant 9, groups Strong, Intermediate, Weak, Zero; for Fold Increase: fold increase in resistance vs wild type, heterozygous Mutant 9, 30 min
Protocol: as §1, §2, §3, §4, §5, §6

[5] = biological target: ALS extracted from leaves of MUTANT 2 (homozygous); assay: ALS enzyme assay, homozygous Mutant 2; settings: for IC50: ALS of homozygous Mutant 2, read-out: ID50% Mutant; for Fold Increase: fold increase in resistance vs wild type, homozygous Mutant 2, 30 min
Protocol: as §2, §3, §4, §5, §6

[6] = biological target: ALS enzyme extracted from Mutant 3 (heterozygous); assay: ALS enzyme assay, heterozygous Mutant 3; settings: for IC50: ALS of heterozygous Mutant 3, read-out: ID50% (the source's name); for resistance group, Enzyme Assay: Mutant 3, groups Strong, Intermediate, Weak, Zero; for Fold Increase: fold increase in resistance vs wild type, heterozygous Mutant 3, 30 min
Protocol: as §1, §2, §3, §4, §5, §6

[7] = biological target: ALS enzyme extracted from Mutant 5 (heterozygous); assay: ALS enzyme assay, heterozygous Mutant 5; settings: for IC50: ALS of heterozygous Mutant 5, read-out: ID50% (the source's name); for resistance group, Enzyme Assay: Mutant 5, groups Strong, Intermediate, Weak, Zero; for Fold Increase: fold increase in resistance vs wild type, heterozygous Mutant 5, 30 min
Protocol: as §1, §2, §3, §4, §5, §6

[8] = biological target: ALS enzyme extracted from Mutant 10 (heterozygous); assay: ALS enzyme assay, heterozygous Mutant 10; settings: for IC50: ALS of heterozygous Mutant 10, read-out: ID50% (the source's name); for resistance group, Enzyme Assay: Mutant 10, groups Strong, Intermediate, Weak, Zero; for Fold Increase: fold increase in resistance vs wild type, heterozygous Mutant 10, 30 min
Protocol: as §1, §2, §3, §4, §5, §6

[9] = biological target: ALS extracted from leaves of MUTANT 1 (homozygous); assay: ALS enzyme assay, homozygous Mutant 1; settings: for IC50: ALS of homozygous Mutant 1, read-out: ID50% Mutant; for Fold Increase: fold increase in resistance vs wild type, homozygous Mutant 1
Protocol: as §2, §3, §4, §5, §6

[10] = biological target: ALS enzyme extracted from Mutant 6 (heterozygous); assay: ALS enzyme assay, heterozygous Mutant 6; settings: for IC50: ALS of heterozygous Mutant 6, read-out: ID50% (the source's name); for resistance group, Enzyme Assay: Mutant 6, groups Strong, Intermediate, Weak, Zero; for Fold Increase: fold increase in resistance vs wild type, heterozygous Mutant 6, 30 min
Protocol: as §1, §2, §3, §4, §5, §6

[11] = biological target: ALS enzyme extracted from Mutant 8 (heterozygous); assay: ALS enzyme assay, heterozygous Mutant 8; settings: for IC50: ALS of heterozygous Mutant 8, read-out: ID50% (the source's name); for resistance group, Enzyme Assay: Mutant 8, groups Strong, Intermediate, Weak, Zero; for Fold Increase: fold increase in resistance vs wild type, heterozygous Mutant 8, 30 min
Protocol: as §1, §2, §3, §4, §5, §6

[12] = biological target: ALS enzyme extracted from Mutant 7 (heterozygous); assay: ALS enzyme assay, heterozygous Mutant 7; settings: for IC50: ALS of heterozygous Mutant 7, read-out: ID50% (the source's name); for resistance group, Enzyme Assay: Mutant 7, groups Strong, Intermediate, Weak, Zero; for Fold Increase: fold increase in resistance vs wild type, heterozygous Mutant 7, 30 min
Protocol: as §1, §2, §3, §4, §5, §6

Structure (SMILES)	IC50 [1] [µM]	resistance group, Enzyme Assay [1]	Fold Increase [1]	IC50 [2] [µM]	resistance group, Enzyme Assay [2]	Fold Increase [2]	IC50 [4] [µM]	resistance group, Enzyme Assay [4]	Fold Increase [4]	IC50 [5] [µM]	Fold Increase [5]	IC50 [6] [µM]	resistance group, Enzyme Assay [6]	Fold Increase [6]	IC50 [7] [µM]	resistance group, Enzyme Assay [7]	Fold Increase [7]	IC50 [8] [µM]	resistance group, Enzyme Assay [8]	Fold Increase [8]	other results
CC(C)C1(C)N=C(c2ncccc2C(=O)O)NC1=O (stereo not shown) [Imazapyr, imazapyr]	540	Strong	180	> 1000	Strong	>333	> 1000	Strong	>333	675	225	4	Weak	1	300	Strong	100	35	Strong	12	IC50 ([3]; herbicide concentration giving 50% inhibition of ALS activity): 3 µM; IC50 [9]: > 1000 µM; Fold Increase ([9]; 30 min): >333; IC50 [10]: 5 µM; resistance group, Enzyme Assay [10]: Intermediate; Fold Increase [10]: 2; IC50 [11]: > 1000 µM; resistance group, Enzyme Assay [11]: Strong; Fold Increase [11]: >333; IC50 [12]: 10 µM; resistance group, Enzyme Assay [12]: Intermediate; Fold Increase [12]: 3
COC(=O)c1sccc1S(=O)(=O)NC(=O)Nc1nc(C)nc(OC)n1 [Thiacarburon, thiacarburon]	0.32	Intermediate	8	0.055	Weak	1	0.045	Weak	1	0.36	8.5	0.085	Weak	2	0.34	Intermediate	8	0.39	Intermediate	9	IC50 [3]: 0.0425 µM; IC50 [9]: 0.04 µM; Fold Increase [9]: nil; IC50 [10]: 0.045 µM; resistance group, Enzyme Assay [10]: Weak; Fold Increase [10]: 1; IC50 [11]: 0.04 µM; resistance group, Enzyme Assay [11]: Weak; Fold Increase [11]: 1; IC50 [12]: 0.025 µM; resistance group, Enzyme Assay [12]: Zero; Fold Increase [12]: 1
